Source: PubChem BioAssay (NCI)
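Cells were grown in 96-well plates and exposed to each compound for 48 hours at five concentrations; endpoints were interpolated linearly between bracketing concentrations, or set to the highest concentration if not reached. GI50 = concentration required for 50% inhibition of growth. TGI denotes the concentration required for complete inhibition of growth.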

Key:
Test in all cases: NCI tumour cell line growth inhibition, 48 h
UACC-257 melanoma = tested on: UACC-257 melanoma
DU-145 prostate = tested on: DU-145 prostate
HT29 colon = tested on: HT29 colon
OVCAR-4 ovarian = tested on: OVCAR-4 ovarian
CCRF-CEM leukemia = tested on: CCRF-CEM leukemia
NCI-H23 lung = tested on: NCI-H23 lung
RPMI-8226 leukemia = tested on: RPMI-8226 leukemia
SNB-75 CNS = tested on: SNB-75 CNS
HOP-92 NSCLC = tested on: HOP-92 NSCLC
HCT-116 colon = tested on: HCT-116 colon
TK-10 renal = tested on: TK-10 renal
HL-60(TB) leukemia = tested on: HL-60(TB) leukemia
SK-MEL-28 melanoma = tested on: SK-MEL-28 melanoma
SF-539 CNS = tested on: SF-539 CNS
HOP-62 NSCLC = tested on: HOP-62 NSCLC
EKVX NSCLC = tested on: EKVX NSCLC
NCI-H522 lung = tested on: NCI-H522 lung
OVCAR-3 ovarian = tested on: OVCAR-3 ovarian
KM12 colon = tested on: KM12 colon
SK-MEL-5 melanoma = tested on: SK-MEL-5 melanoma
SF-295 CNS = tested on: SF-295 CNS
HCC-2998 colon = tested on: HCC-2998 colon
MDA-MB-231 breast = tested on: MDA-MB-231 breast
SN12C renal = tested on: SN12C renal
NCI-H226 lung = tested on: NCI-H226 lung
SK-OV-3 ovarian = tested on: SK-OV-3 ovarian
RXF 393 renal = tested on: RXF 393 renal
T-47D breast = tested on: T-47D breast
MDA-MB-435 = tested on: MDA-MB-435
MDA-MB-468 breast = tested on: MDA-MB-468 breast
U251 CNS = tested on: U251 CNS
MOLT-4 leukemia = tested on: MOLT-4 leukemia
SW-620 colon = tested on: SW-620 colon
PC-3 prostate = tested on: PC-3 prostate
SF-268 CNS = tested on: SF-268 CNS
A549 NSCLC = tested on: A549 NSCLC
K-562 leukemia = tested on: K-562 leukemia
UACC-62 melanoma = tested on: UACC-62 melanoma
MALME-3M melanoma = tested on: MALME-3M melanoma
OVCAR-5 ovarian = tested on: OVCAR-5 ovarian
BT-549 breast = tested on: BT-549 breast
LOX IMVI melanoma = tested on: LOX IMVI melanoma
OVCAR-8 ovarian = tested on: OVCAR-8 ovarian
SR leukemia = tested on: SR leukemia
ACHN renal = tested on: ACHN renal
786-0 renal = tested on: 786-0 renal
A498 renal = tested on: A498 renal
MCF7 breast = tested on: MCF7 breast
NCI-H460 lung = tested on: NCI-H460 lung
HS 578T breast = tested on: HS 578T breast
SNB-19 CNS = tested on: SNB-19 CNS
CAKI-1 renal = tested on: CAKI-1 renal
SK-MEL-2 melanoma = tested on: SK-MEL-2 melanoma
COLO 205 colon = tested on: COLO 205 colon
IGROV1 ovarian = tested on: IGROV1 ovarian
HCT-15 colon = tested on: HCT-15 colon
UO-31 renal = tested on: UO-31 renal
M14 melanoma = tested on: M14 melanoma

Question: For `CC1CCCCN1CCCNC(=O)N/C(N)=N/c1nc2ccccc2s1` (stereo unspecified), which GI50 (UACC-257 melanoma) is on record?
Answer: 15.8 µM

Question: What about the TGI (UACC-257 melanoma) of the same molecule?
Answer: 30.7 µM

Question: And the GI50 (DU-145 prostate)?
Answer: 46.7 µM

Question: And the TGI (DU-145 prostate)?
Answer: > 100 µM

Question: What about the GI50 (HT29 colon) of the same molecule?
Answer: 15.3 µM

Question: What about the TGI (HT29 colon) of the same molecule?
Answer: 46.2 µM

Question: What about the GI50 (OVCAR-4 ovarian) of the same molecule?
Answer: 63.1 µM

Question: What about the TGI (OVCAR-4 ovarian) of the same molecule?
Answer: > 100 µM

Question: And the GI50 (CCRF-CEM leukemia)?
Answer: 19.6 µM

Question: What about the TGI (CCRF-CEM leukemia) of the same molecule?
Answer: 57.8 µM

Question: What about the GI50 (NCI-H23 lung) of the same molecule?
Answer: 27 µM

Question: What about the TGI (NCI-H23 lung) of the same molecule?
Answer: > 100 µM

Question: And the GI50 (RPMI-8226 leukemia)?
Answer: 17.4 µM

Question: What about the TGI (RPMI-8226 leukemia) of the same molecule?
Answer: 51.3 µM

Question: And the GI50 (SNB-75 CNS)?
Answer: 7.4 µM

Question: And the TGI (SNB-75 CNS)?
Answer: 55.2 µM

Question: What about the GI50 (HOP-92 NSCLC) of the same molecule?
Answer: 4.96 µM

Question: What about the TGI (HOP-92 NSCLC) of the same molecule?
Answer: 41.6 µM

Question: And the GI50 (HCT-116 colon)?
Answer: 15 µM

Question: And the TGI (HCT-116 colon)?
Answer: 28.9 µM

Question: And the GI50 (TK-10 renal)?
Answer: 20.8 µM

Question: What about the TGI (TK-10 renal) of the same molecule?
Answer: 46 µM

Question: And the GI50 (HL-60(TB) leukemia)?
Answer: 11.5 µM

Question: And the TGI (HL-60(TB) leukemia)?
Answer: 33.8 µM

Question: What about the GI50 (SK-MEL-28 melanoma) of the same molecule?
Answer: 16.6 µM

Question: What about the TGI (SK-MEL-28 melanoma) of the same molecule?
Answer: 30.5 µM

Question: And the GI50 (SF-539 CNS)?
Answer: 15.8 µM

Question: And the TGI (SF-539 CNS)?
Answer: 30.1 µM

Question: What about the GI50 (HOP-62 NSCLC) of the same molecule?
Answer: 21.3 µM

Question: And the TGI (HOP-62 NSCLC)?
Answer: > 100 µM

Question: And the GI50 (EKVX NSCLC)?
Answer: 27.9 µM

Question: And the TGI (EKVX NSCLC)?
Answer: > 100 µM

Question: What about the GI50 (NCI-H522 lung) of the same molecule?
Answer: 18.3 µM

Question: And the TGI (NCI-H522 lung)?
Answer: 43.8 µM

Question: What about the GI50 (OVCAR-3 ovarian) of the same molecule?
Answer: 24 µM

Question: What about the TGI (OVCAR-3 ovarian) of the same molecule?
Answer: > 100 µM

Question: And the GI50 (KM12 colon)?
Answer: 27 µM

Question: And the TGI (KM12 colon)?
Answer: > 100 µM

Question: What about the GI50 (SK-MEL-5 melanoma) of the same molecule?
Answer: 13.3 µM

Question: And the TGI (SK-MEL-5 melanoma)?
Answer: 26.2 µM

Question: And the GI50 (SF-295 CNS)?
Answer: 16 µM

Question: What about the TGI (SF-295 CNS) of the same molecule?
Answer: 30.7 µM

Question: And the GI50 (HCC-2998 colon)?
Answer: 15.2 µM

Question: And the TGI (HCC-2998 colon)?
Answer: 29.2 µM

Question: What about the GI50 (MDA-MB-231 breast) of the same molecule?
Answer: 14.8 µM

Question: And the TGI (MDA-MB-231 breast)?
Answer: 40.7 µM

Question: What about the GI50 (SN12C renal) of the same molecule?
Answer: 36.7 µM

Question: And the TGI (SN12C renal)?
Answer: > 100 µM

Question: And the GI50 (NCI-H226 lung)?
Answer: 27.7 µM

Question: What about the TGI (NCI-H226 lung) of the same molecule?
Answer: > 100 µM

Question: What about the GI50 (SK-OV-3 ovarian) of the same molecule?
Answer: 19.7 µM

Question: And the TGI (SK-OV-3 ovarian)?
Answer: 89.1 µM

Question: What about the GI50 (RXF 393 renal) of the same molecule?
Answer: 10.2 µM

Question: What about the TGI (RXF 393 renal) of the same molecule?
Answer: 33.3 µM

Question: What about the GI50 (T-47D breast) of the same molecule?
Answer: 15.4 µM

Question: What about the TGI (T-47D breast) of the same molecule?
Answer: 39.6 µM

Question: And the GI50 (MDA-MB-435)?
Answer: 16.2 µM

Question: What about the TGI (MDA-MB-435) of the same molecule?
Answer: 30.2 µM

Question: And the GI50 (MDA-MB-468 breast)?
Answer: 14.7 µM

Question: What about the TGI (MDA-MB-468 breast) of the same molecule?
Answer: 30.7 µM

Question: And the GI50 (U251 CNS)?
Answer: 17 µM

Question: What about the TGI (U251 CNS) of the same molecule?
Answer: 39.3 µM

Question: And the GI50 (MOLT-4 leukemia)?
Answer: 12.1 µM

Question: What about the TGI (MOLT-4 leukemia) of the same molecule?
Answer: 51.9 µM

Question: And the GI50 (SW-620 colon)?
Answer: 16.2 µM

Question: And the TGI (SW-620 colon)?
Answer: 34.1 µM

Question: And the GI50 (PC-3 prostate)?
Answer: 20 µM

Question: What about the TGI (PC-3 prostate) of the same molecule?
Answer: > 100 µM

Question: And the GI50 (SF-268 CNS)?
Answer: 21.1 µM

Question: And the TGI (SF-268 CNS)?
Answer: 79.8 µM

Question: What about the GI50 (A549 NSCLC) of the same molecule?
Answer: 21 µM

Question: And the TGI (A549 NSCLC)?
Answer: 57.7 µM

Question: What about the GI50 (K-562 leukemia) of the same molecule?
Answer: 15.8 µM

Question: And the TGI (K-562 leukemia)?
Answer: 46.7 µM

Question: And the GI50 (UACC-62 melanoma)?
Answer: 16.8 µM

Question: And the TGI (UACC-62 melanoma)?
Answer: 31.7 µM

Question: And the GI50 (MALME-3M melanoma)?
Answer: 13.9 µM

Question: What about the TGI (MALME-3M melanoma) of the same molecule?
Answer: 27.1 µM

Question: And the GI50 (OVCAR-5 ovarian)?
Answer: 22.5 µM

Question: What about the TGI (OVCAR-5 ovarian) of the same molecule?
Answer: 68.5 µM

Question: And the GI50 (BT-549 breast)?
Answer: 16.5 µM

Question: And the TGI (BT-549 breast)?
Answer: 59.3 µM

Question: What about the GI50 (LOX IMVI melanoma) of the same molecule?
Answer: 13.9 µM

Question: What about the TGI (LOX IMVI melanoma) of the same molecule?
Answer: 27.7 µM

Question: What about the GI50 (OVCAR-8 ovarian) of the same molecule?
Answer: 27.5 µM

Question: And the TGI (OVCAR-8 ovarian)?
Answer: > 100 µM

Question: And the GI50 (SR leukemia)?
Answer: 18.7 µM

Question: And the TGI (SR leukemia)?
Answer: 58.5 µM

Question: And the GI50 (ACHN renal)?
Answer: 19.1 µM

Question: What about the TGI (ACHN renal) of the same molecule?
Answer: 48.1 µM

Question: And the GI50 (786-0 renal)?
Answer: 17.2 µM

Question: What about the TGI (786-0 renal) of the same molecule?
Answer: 32.7 µM

Question: What about the GI50 (A498 renal) of the same molecule?
Answer: 17 µM

Question: And the TGI (A498 renal)?
Answer: 38.2 µM

Question: What about the GI50 (MCF7 breast) of the same molecule?
Answer: 15 µM

Question: And the TGI (MCF7 breast)?
Answer: 31.7 µM

Question: What about the GI50 (NCI-H460 lung) of the same molecule?
Answer: 19.1 µM

Question: And the TGI (NCI-H460 lung)?
Answer: 40.6 µM

Question: What about the GI50 (HS 578T breast) of the same molecule?
Answer: 15.1 µM

Question: And the TGI (HS 578T breast)?
Answer: 50.1 µM

Question: And the GI50 (SNB-19 CNS)?
Answer: 29.7 µM

Question: What about the TGI (SNB-19 CNS) of the same molecule?
Answer: > 100 µM

Question: What about the GI50 (CAKI-1 renal) of the same molecule?
Answer: 13.3 µM

Question: And the TGI (CAKI-1 renal)?
Answer: 28 µM

Question: And the GI50 (SK-MEL-2 melanoma)?
Answer: 16 µM

Question: And the TGI (SK-MEL-2 melanoma)?
Answer: 31.1 µM

Question: And the GI50 (COLO 205 colon)?
Answer: 14 µM

Question: And the TGI (COLO 205 colon)?
Answer: 28.2 µM

Question: And the GI50 (IGROV1 ovarian)?
Answer: 21.3 µM

Question: What about the TGI (IGROV1 ovarian) of the same molecule?
Answer: 76.7 µM

Question: What about the GI50 (HCT-15 colon) of the same molecule?
Answer: 16.4 µM

Question: What about the TGI (HCT-15 colon) of the same molecule?
Answer: 33.4 µM

Question: And the GI50 (UO-31 renal)?
Answer: 10.2 µM

Question: And the TGI (UO-31 renal)?
Answer: 25.2 µM

Question: What about the GI50 (M14 melanoma) of the same molecule?
Answer: 15.8 µM

Question: What about the TGI (M14 melanoma) of the same molecule?
Answer: 30.5 µM
